Data published in PubChem BioAssay AID248 (DTP/NCI, 2004).
Values joined by “and” are separate entries in the source; they are usually repeats but may differ in a detail not shown here. Identical values can stand only once. Toxic doses and inconclusive results are not listed. Cut-off read from the data, not from the text of the source: active = T/C of 150% or more; inactive = T/C below 125%.

System: L1210 leukemia ip in BDF1 mice, survival T/C
Experiment: NCI In Vivo Anticancer Drug Screen. Data for tumor model L1210 Leukemia (intraperitoneal) in B6D2F1 (BDF1) mice
Conditions: endpoint: mean survival time, higher = longer survival
Procedure, shortened: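 Tumor cells were implanted, animals were treated, and survival was followed. The result divides the treated measurement by the vehicle-control measurement.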

[1] = dose: 100.0 mg/kg/injection, schedule: Q04DX003 (ip), vehicle: Klucel (hydroxypropylcellulose) (HPC)
[2] = dose: 200.0 mg/kg/injection, schedule: Q04DX003 (ip), vehicle: Klucel (hydroxypropylcellulose) (HPC)
[3] = dose: 400.0 mg/kg/injection, schedule: Q04DX003 (ip), vehicle: Klucel (hydroxypropylcellulose) (HPC)
[4] = dose: 100.0 mg/kg/injection, schedule: Q01DX009 (ip), vehicle: Klucel (hydroxypropylcellulose) (HPC)
[5] = dose: 200.0 mg/kg/injection, schedule: Q01DX009 (ip), vehicle: Klucel (hydroxypropylcellulose) (HPC)
[6] = dose: 50.0 mg/kg/injection, schedule: Q01DX001 (ip), vehicle: carboxymethylcellulose (CMC)
[7] = dose: 100.0 mg/kg/injection, schedule: Q01DX001 (ip), vehicle: carboxymethylcellulose (CMC)
[8] = dose: 200.0 mg/kg/injection, schedule: Q01DX001 (ip), vehicle: carboxymethylcellulose (CMC)
[9] = dose: 100.0 mg/kg/injection, schedule: Q01DX001 (ip), vehicle: saline
[10] = dose: 200.0 mg/kg/injection, schedule: Q01DX001 (ip), vehicle: saline
[11] = dose: 400.0 mg/kg/injection, schedule: Q01DX001 (ip), vehicle: saline
[12] = dose: 400.0 mg/kg/injection, schedule: Q01DX009 (ip), vehicle: Klucel (hydroxypropylcellulose) (HPC)

Measured: T/C

CC(=O)OCC(=O)C1CCC2(C)C3=C(CCC12C)C1(C)CCC(=O)C(C)(C)C1CC3 (stereo unspecified)
inactive: dose: 50.0 mg/kg/injection, schedule: Q01DX001 (sc), vehicle: steriod suspending solution 105 % of control | dose: 100.0 mg/kg/injection, schedule: Q01DX001 (sc), vehicle: steriod suspending solution 94 % of control | dose: 200.0 mg/kg/injection, schedule: Q01DX001 (sc), vehicle: steriod suspending solution 100 % of control | dose: 400.0 mg/kg/injection, schedule: Q01DX001 (sc), vehicle: steriod suspending solution 100 % of control

CCCCCC(=O)/C=C/CC(CCCCCCC#N)C(CC(OC)OC)[N+](=O)[O-] (stereo unspecified)
inactive: [1] 100 % of control | [2] 96 % of control | [3] 96 % of control

CN(Cc1ccccc1)C(=O)/C=C/c1ccccc1
inactive: [4] 93 % of control | [1] 94 % of control | [5] 96 % of control | [2] 96 % of control | [3] 89 % of control

O=C(O)CNC(=O)NCO
inactive: dose: 100.0 mg/kg/injection, schedule: Q01DX001 (ip), vehicle: acetone 100 % of control | dose: 200.0 mg/kg/injection, schedule: Q01DX001 (ip), vehicle: acetone 100 % of control | dose: 400.0 mg/kg/injection, schedule: Q01DX001 (ip), vehicle: acetone 103 % of control

S=C(N/N=C\c1ccc2c(c1)OCO2)Nc1ccc2cn[nH]c2c1
inactive: [6] 97 % of control | [7] 100 % of control | [8] 91 % of control

Cc1ccc(S(=O)(=O)OCCN(CCOS(=O)(=O)c2ccc(C)cc2)c2cccc([N+](=O)[O-])c2)cc1
inactive: dose: 50.0 mg/kg/injection, schedule: Q01DX001 (ip), vehicle: saline 97 % of control | [9] 100 % of control | [10] 97 % of control | [11] 88 % of control

Cc1ccc(S(=O)(=O)Nc2ccc([N+](=O)[O-])cc2O)cc1
inactive: [4] 97 % of control | [5] 101 % of control | [12] 94 % of control

O=C(Nc1ccc(Nc2ccccc2)cc1)Nc1ccccc1C(F)(F)F
inactive: [6] 95 % of control | dose: 50.0 mg/kg/injection, schedule: Q04DX003 (ip), vehicle: carboxymethylcellulose (CMC) 100 % of control | [7] 105 % of control | dose: 100.0 mg/kg/injection, schedule: Q01DX009 (ip), vehicle: carboxymethylcellulose (CMC) 88 % of control | dose: 100.0 mg/kg/injection, schedule: Q04DX002 (ip), vehicle: carboxymethylcellulose (CMC) 102 % of control and 106 % of control | dose: 100.0 mg/kg/injection, schedule: Q04DX003 (ip), vehicle: carboxymethylcellulose (CMC) 93 % of control | [8] 92 % of control | dose: 200.0 mg/kg/injection, schedule: Q01DX009 (ip), vehicle: carboxymethylcellulose (CMC) 86 % of control and 92 % of control | dose: 200.0 mg/kg/injection, schedule: Q04DX002 (ip), vehicle: carboxymethylcellulose (CMC) 94 % of control and 97 % of control | dose: 400.0 mg/kg/injection, schedule: Q01DX009 (ip), vehicle: carboxymethylcellulose (CMC) 92 % of control | dose: 400.0 mg/kg/injection, schedule: Q04DX002 (ip), vehicle: carboxymethylcellulose (CMC) 94 % of control and 92 % of control

[N-]=[N+]=Nc1ccc(-c2nc(N)[nH]c(=O)c2Br)cc1
inactive: [1] 93 % of control | [2] 86 % of control | [3] 100 % of control

COc1ccc(C(=O)NC(=S)Nc2ccc(I)cc2)cc1
inactive: [4] 98 % of control | [1] 89 % of control | [5] 98 % of control | [2] 89 % of control | [12] 91 % of control | [3] 94 % of control

COC1OC(COC(=O)c2ccc([N+](=O)[O-])cc2)C(OC(=O)c2ccc([N+](=O)[O-])cc2)C1OCc1ccccc1 (stereo unspecified)
inactive: dose: 75.0 mg/kg/injection, schedule: Q01DX001 (ip), vehicle: other 86 % of control | dose: 150.0 mg/kg/injection, schedule: Q01DX001 (ip), vehicle: other 86 % of control | dose: 300.0 mg/kg/injection, schedule: Q01DX001 (ip), vehicle: other 86 % of control and 89 % of control

O=C(O)COc1nc2ccccc2s1
inactive: [4] 95 % of control | dose: 100.0 mg/kg/injection, schedule: Q04DX003 (ip), vehicle: alcohol 105 % of control | [5] 96 % of control | dose: 200.0 mg/kg/injection, schedule: Q04DX003 (ip), vehicle: alcohol 98 % of control | [12] 88 % of control | dose: 400.0 mg/kg/injection, schedule: Q04DX003 (ip), vehicle: alcohol 94 % of control

Cc1nnn(N/N=C(\C(=O)Oc2ccccc2)c2ccccc2)c1C
inactive: [1] 100 % of control | [2] 103 % of control | [3] 96 % of control

[Mg+2]
inactive: [9] 96 % of control | dose: 100.0 mg/kg/injection, schedule: Q01DX009 (ip), vehicle: saline 95 % of control | dose: 100.0 mg/kg/injection, schedule: Q04DX003 (ip), vehicle: saline 93 % of control | [10] 91 % of control | dose: 200.0 mg/kg/injection, schedule: Q01DX009 (ip), vehicle: saline 95 % of control | dose: 200.0 mg/kg/injection, schedule: Q04DX003 (ip), vehicle: saline 89 % of control | [11] 96 % of control | dose: 400.0 mg/kg/injection, schedule: Q01DX009 (ip), vehicle: saline 97 % of control | dose: 400.0 mg/kg/injection, schedule: Q04DX003 (ip), vehicle: saline 88 % of control
